Patent US6730480B1, “Sphingosine kinase enzyme” (Johnson & Johnson Pharmaceutical Research and Development …, priority 1999, dated 2004)
“Also recorded” adds a separate entry of the source.

Legend:
[1] = target: T1, native sphingosine kinase (human placenta SK1) (Homo sapiens, UniProt Q9NYA1); experiment: Sphingosine kinase enzyme assay with native SK purified from human placenta; type: biochemical; conditions: for Substrate specificity (phosphorylation by the enzyme): substrates at 100 μM in 0.25% Triton X-100, relative to sphingosine; for Km / Km (mol %): substrate kinetics; for Metal ion requirement (sphingosine kinase activity): metal ions or EDTA at 10 mM; for kcat: Triton X-100 mixed micelles; for Km (mol %): mol % of Triton X-100 (0.25% w/v); for Effect of phospholipid on sphingosine kinase activity: phospholipid at 10 mol% of Triton X-100
T1 construct: from tissue; host or cells: human placenta
Protocol: Sphingosine kinase activity was routinely determined using D-erythro-sphingosine and [γ^32P]ATP as substrates, essentially as previously described (Olivera et al., 1998) with some modifications. […] Reactions were terminated and sphingosine-1-phosphate extracted by the addition of 700 μl of chloroform/methanol/HCl (100:200:1. v/v), followed by vigorous mixing, addition of 200 μp of chloroform and 200 μl of 2 M KCl, and phase separation by centrifugation. […] Sunnyvale, Calif.). One unit (U) of activity is defined as 1pmol of S1P formed per minute. […] Similarly, thermal stabilities were determined by assaying the residual activity after pre-incubation of the enzymes at various temperatures (4-80° C.) for 30 min at pH 7.4 (50 mM Tris/HCl containing 10% glycerol, 0.5 M NaCl and 0.05% Triton X-100). Substrate kinetics were analysed using Michaelis-Menten kinetics with a weighted non-linear regression program (Easterby, 1996). […] In both cases the data were analysed by non-linear regression. The effect of metal ions on the activity of the native and recombinant sphingosine kinases were determined by assaying the activity under standard conditions in the presence of various metal ions or EDTA at 10 mM. […] PC, phosphatidylcholine; PS phosphatidylserine; PE, […]; PI, phosphatidylinositol.

[2] = target: T2, recombinant human sphingosine kinase (Homo sapiens, UniProt Q9NYA1); experiment: Sphingosine kinase enzyme assay with recombinant human SK expressed in E. coli; type: biochemical; conditions: for Substrate specificity (phosphorylation by the enzyme): substrates at 100 μM in 0.25% Triton X-100, relative to sphingosine; for Km / Km (mol %): substrate kinetics; for Metal ion requirement (sphingosine kinase activity): metal ions or EDTA at 10 mM; for kcat: Triton X-100 mixed micelles; for Km (mol %): mol % of Triton X-100 (0.25% w/v); for Effect of phospholipid on sphingosine kinase activity: phospholipid at 10 mol% of Triton X-100
T2 construct: The full length SPHK cDNA cloned into pGEX4T2 was transformed into E. coli BL21; GST (N, cleaved yes); made in house; host or cells: E. coli BL21
Protocol: Sphingosine kinase activity was routinely determined using D-erythro-sphingosine and [γ^32P]ATP as substrates, essentially as previously described (Olivera et al., 1998) with some modifications. […] Reactions were terminated and sphingosine-1-phosphate extracted by the addition of 700 μl of chloroform/methanol/HCl (100:200:1. v/v), followed by vigorous mixing, addition of 200 μp of chloroform and 200 μl of 2 M KCl, and phase separation by centrifugation. […] Sunnyvale, Calif.). One unit (U) of activity is defined as 1pmol of S1P formed per minute. The full length SPHK cDNA cloned into pGEX4[…]. coli BL21. Overnight cultures (100 ml) of transformed isolates were grown with shaking (200 rpm) at 30° C. in Superbroth (20 g/L glucose, 35 g/L tryptone, 20 g/L yeast extract, 5 g/L NaCl, pH 7.5) medium containing ampicillin (100 mg/L). The cultures were diluted 1:20 in fresh medium and grown at 30° C. with shaking to an OD600 of 0.6-0.7. Expression of the glutathione-s-transferase (GST)-coupled sphingosine kinase (GST-SK) was then induced by addition of 0.1 mM isopropyl-β-D-thiogalactoside and further incubation of the cultures at 30° C. for 3 h. After this time the bacterial cells were then harvested by centrifugation at 6,000 g for 20 min at 4° C. and resuspended in 20 ml of buffer B containing 250 mM NaCl. the cells were then lysed with lysozyme at a final concentration of 0.3 mg/ml for 15 min at 25° C. followed by sonication, consisting of three cycles of 20 s ultrasonic pulses followed by one minute cooling. The lysate was then clarified by centrifugation at 50,000 g for 45 min at 4° C., followed by filtrating through 0.22 μm filters. To be filtered supernatant was then incubated with 0.2 volumes of 50% (w/v) glutathione-Sepharose 4B (Pharmacia) that was washed and pro-equilibrated with buffer B, for 60 min at 4° C. with constant mixing. After this time the mixture was poured into a glass chromatography column (10 mm diam.) and the beads (with bound GST-SK) washed with 10 column volumes of buffer B at 4° C. The GST-SK was then eluted from the column in 10 ml of buffer B containing 10 mM reduced glutathione. Cleavage of the GST away from sphingosine kinase was then performed by incubation with 20 μg (30 N.I.H. units) thrombin (Pharmacia) for 3 h at 25° C. The released sphingosine kinase was then purified by application of the cleavage mix to a calmodulin-Sepharose column and then a Mono-Q anion exchange column for the purification of the sphingosine kinase from human placenta. […] Similarly, thermal stabilities were determined by assaying the residual activity after pre-incubation of the enzymes at various temperatures (4-80° C.) for 30 min at pH 7.4 (50 mM Tris/HCl containing 10% glycerol, 0.5 M NaCl and 0.05% Triton X-100). Substrate kinetics were analysed using Michaelis-Menten kinetics with a weighted non-linear regression program (Easterby, 1996). […] In both cases the data were analysed by non-linear regression. The effect of metal ions on the activity of the native and recombinant sphingosine kinases were determined by assaying the activity under standard conditions in the presence of various metal ions or EDTA at 10 mM. […] PC, phosphatidylcholine; PS phosphatidylserine; PE, […]; PI, phosphatidylinositol.

[3] = ADP 0.1 to 5 mM, with respect to ATP
[4] = inhibitor 2 to 50 μM, mol % of Triton X-100
[5] = listed as N,N,N, -trimethylsphingosinei

T2 sequence (Q9NYA1 whole entry): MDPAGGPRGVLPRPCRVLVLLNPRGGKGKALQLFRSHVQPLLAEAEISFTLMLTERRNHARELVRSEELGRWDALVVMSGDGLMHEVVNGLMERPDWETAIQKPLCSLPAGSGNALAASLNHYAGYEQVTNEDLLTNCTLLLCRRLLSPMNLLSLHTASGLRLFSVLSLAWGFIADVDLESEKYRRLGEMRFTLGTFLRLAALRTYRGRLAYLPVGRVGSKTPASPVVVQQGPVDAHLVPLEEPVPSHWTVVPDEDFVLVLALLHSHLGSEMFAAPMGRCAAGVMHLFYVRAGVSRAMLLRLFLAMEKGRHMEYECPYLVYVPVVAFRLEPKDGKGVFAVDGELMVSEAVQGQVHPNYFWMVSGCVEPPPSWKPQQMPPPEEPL
T1 sequence (Q9NYA1 whole entry): as above

CCCCCCCCCCCCCCC[C@H](O)[C@@H](N)CO (racemic) [DL-threo-dihydrosphingosine]
Inhibition of sphingosine kinase (kind of inhibition) [1]: competitive inhibition | Substrate specificity (phosphorylation by the enzyme) [1]: not phosphorylated; also recorded: No phosphorylation | Inhibition of sphingosine kinase (kind of inhibition) [2]: competitive inhibition | Substrate specificity (phosphorylation by the enzyme) [2]: not phosphorylated; also recorded: No phosphorylation

CCCCCCCC(=O)OC[C@H](CO)OC(=O)CCCCCCC [1,2-dioctanoyl-sn-glycerol]
Substrate specificity (phosphorylation by the enzyme) [1]: not phosphorylated; also recorded: No phosphorylation | Substrate specificity (phosphorylation by the enzyme) [2]: not phosphorylated; also recorded: No phosphorylation

CCCCCCCC/C=C\CCCCCCCC(=O)OC[C@H](CO)OC(=O)CCCCCCC/C=C\CCCCCCCC [1,2-dioleoyl-sn-glycerol]
Substrate specificity (phosphorylation by the enzyme) [1]: not phosphorylated; also recorded: No phosphorylation | Substrate specificity (phosphorylation by the enzyme) [2]: not phosphorylated; also recorded: No phosphorylation

Nc1ncnc2c1ncn2[C@@H]1O[C@H](COP(=O)(O)OP(=O)(O)O)[C@@H](O)[C@H]1O [ADP]
Inhibition of sphingosine kinase (kind of inhibition) [1]: weak competitive inhibition | Ki [1, 3]: 1100 ± 300 µM | Inhibition of sphingosine kinase (kind of inhibition) [2]: weak competitive inhibition | Ki [2, 3]: 900 ± 200 µM

Nc1ncnc2c1ncn2[C@@H]1O[C@H](COP(=O)(O)OP(=O)(O)OP(=O)(O)O)[C@@H](O)[C@H]1O [ATP]
Km ([1]; bulk solution concentration): 77 ± 11 µM | Km ([2]; bulk solution concentration): 86 ± 12 µM

[Ca+2] [Ca^2+]
Metal ion requirement (sphingosine kinase activity) [1]: only very low activity | Metal ion requirement (sphingosine kinase activity) [2]: only very low activity

[Cu+2] [Cu^2−]
Metal ion requirement (sphingosine kinase activity) [1]: did not support sphingosine kinase activity | Metal ion requirement (sphingosine kinase activity) [2]: did not support sphingosine kinase activity

CCCCCCCCCCCCCCC[C@@H](O)[C@@H](N)CO [Dihydrosphingosine, D-erythro-dihydrosphingosine]
kcat [1]: 35 S^−1 | Km ([1]; bulk solution concentration): 20 ± 2 µM | Km (mol %) [1]: 0.50 ± 0.05 mol % | Substrate specificity (phosphorylation by the enzyme) [1]: greatest activity | kcat [2]: 76 S^−1 | Km ([2]; bulk solution concentration): 19 ± 2 µM | Km (mol %) [2]: 0.48 ± 0.05 mol % | Substrate specificity (phosphorylation by the enzyme) [2]: greatest activity

O=C(O)CN(CCN(CC(=O)O)CC(=O)O)CC(=O)O [EDTA]
Metal ion requirement (sphingosine kinase activity) [1]: elimated activity | Metal ion requirement (sphingosine kinase activity) [2]: elimated activity

[Fe+2] [Fe^2+]
Metal ion requirement (sphingosine kinase activity) [1]: did not support sphingosine kinase activity | Metal ion requirement (sphingosine kinase activity) [2]: did not support sphingosine kinase activity

CCCC[C@@H](C)[C@@H](OC(=O)C[C@@H](CC(=O)O)C(=O)O)[C@H](C[C@@H](C)C[C@H](O)CCCC[C@@H](O)C[C@H](O)[C@H](C)N)OC(=O)C[C@@H](CC(=O)O)C(=O)O [Fumosin B1]
Inhibition of sphingosine kinase (kind of inhibition) [1]: No inhibition | Inhibition of sphingosine kinase (kind of inhibition) [2]: No inhibition

[Mg+2] [Mg^2+]
Metal ion requirement (sphingosine kinase activity) [1]: highest activity | Metal ion requirement (sphingosine kinase activity) [2]: highest activity

[Mn+2] [Mn^2−]
Metal ion requirement (sphingosine kinase activity) [1]: somewhat lower activity | Metal ion requirement (sphingosine kinase activity) [2]: somewhat lower activity

CCCCCCCCCCCCC/C=C/[C@@H](O)[C@H](CO)[N+](C)(C)C [N,N,N-trimethylsphingosine]
Inhibition of sphingosine kinase (kind of inhibition) [1]: competitive inhibition | Ki ([1]; bulk solution concentration): 4.6 ± 1 µM | Ki (mol %) [1, 4]: 0.12 ± 0.03 mol % | Substrate specificity (phosphorylation by the enzyme) [1]: not phosphorylated | Substrate specificity (phosphorylation by the enzyme) [1, 5]: No phosphorylation | Inhibition of sphingosine kinase (kind of inhibition) [2]: competitive inhibition | Ki ([2]; bulk solution concentration): 3.8 ± 1 µM | Ki (mol %) [2, 4]: 0.10 ± 0.02 mol % | Substrate specificity (phosphorylation by the enzyme) [2]: not phosphorylated | Substrate specificity (phosphorylation by the enzyme) [2, 5]: No phosphorylation

CCCCCCCCCCCCC/C=C/[C@@H](O)[C@H](CO)NC(C)=O [N-acetylsphingosine]
Inhibition of sphingosine kinase (kind of inhibition) [1]: No inhibition | Substrate specificity (phosphorylation by the enzyme) [1]: not phosphorylated; also recorded: No phosphorylation | Inhibition of sphingosine kinase (kind of inhibition) [2]: No inhibition | Substrate specificity (phosphorylation by the enzyme) [2]: not phosphorylated; also recorded: No phosphorylation

CCCCCCCCCCCCC/C=C/[C@@H](O)[C@@H](N)CO [Sphingosine, D-erythro-Sphingosine]
kcat [1]: 50 S^−1 | Km (mol %) [1]: 0.35 ± 0.05 mol % | Substrate specificity (phosphorylation by the enzyme) [1]: greatest activity | kcat [2]: 85 S^−1 | Km (mol %) [2]: 0.30 ± 0.07 mol % | Substrate specificity (phosphorylation by the enzyme) [2]: greatest activity

[Zn+2] [ZN^2−]
Metal ion requirement (sphingosine kinase activity) [1]: did not support sphingosine kinase activity | Metal ion requirement (sphingosine kinase activity) [2]: did not support sphingosine kinase activity

CCCCCCCCCCCCCC[C@@H](O)[C@@H](O)[C@@H](N)CO [phytosphingosine, Phytosphingosine]
Substrate specificity (phosphorylation by the enzyme) [1]: Low activity | Substrate specificity (phosphorylation by the enzyme) [2]: Low activity

L-α-phosphatidylcholine
Effect of phospholipid on sphingosine kinase activity [1]: did not result in any detectable differences | Effect of phospholipid on sphingosine kinase activity [2]: did not result in any detectable differences

L-α-phosphatidyldethanolamine
Effect of phospholipid on sphingosine kinase activity [1]: did not result in any detectable differences | Effect of phospholipid on sphingosine kinase activity [2]: did not result in any detectable differences

L-α-phosphatidylinositol
Substrate specificity (phosphorylation by the enzyme) [1]: not phosphorylated; also recorded: No phosphorylation | Substrate specificity (phosphorylation by the enzyme) [2]: not phosphorylated; also recorded: No phosphorylation
